Here are results for 6 compounds from US20220056018A1, “SREBP INHIBITORS COMPRISING A THIOPHENE CENTRAL RING” (Capulus Therapeutics, LLC, priority 2019, published 2022).

Each structure is given as a SMILES string.

The nature of data set [1]: Stability in mouse liver microsomes. In kind it is in vitro ADME. As for the experimental part:
(§1) Compounds were evaluated for stability in human liver microsomes. A 10 mM stock solution of the compound being evaluated was prepared in DMSO and diluted with water:acetonitrile (1:1) to a concentration of 1 mM. A working concentration of 100 μM was prepared by further dilution with water:acetonitrile (1:1). To make the preincubation mixture, 2.5 μL of the diluted compound was combined with 75 μL of human liver microsomes at 3.33 mg/mL, and 85 μL of 100 mM potassium phosphate buffer, and this mixture was pre-incubated for 10 min at 37° C. To make the 60 minute mixture without cofactor, 32.5 μL of the preincubation mixture was combined with 17.5 μL of 100 mM potassium phosphate buffer and incubated for 60 min at 37° C. To make the 0 min sample with cofactor (NADPH), 16.25 μL of the preincubation mixture was combined with 200 μL of acetonitrile containing internal standard and 8.75 μL of cofactor (NADPH). To make the incubation mixture, 62 μL of cofactor (2.85 mM) was combined with the remaining incubation mixture, and incubated for 60 min at 37° C. To prepare the sample mixture to be evaluated, 25 μL incubation mixture was combined with 200 μL of acetonitrile containing internal standard and vortexed for 5 min at 1200 rpm, then centrifuged for 10 min at 4000 rpm. The supernatant was diluted 2 fold with water and injected on LC-MS/MS. The sample mixture was evaluated by LC-MS/MS using 10 mM ammonium acetate with 0.100 FA as the aqueous mobile phase, and methanol as the organic mobile phase.
Half-Life Mouse Microsomes:
Compounds were evaluated in mouse liver microsomes following a similar procedure as described above for human liver microsomes. A similar procedure could be used to evaluate compounds in rat liver microsomes.
In general terms: Liver microsomes are vesicles of endoplasmic reticulum, rich in cytochrome P450 enzymes.

Data set [2] can be described thus: Stability in human liver microsomes. The data set is classed as in vitro ADME. The settings on record: 37° C., NADPH. As to the method:
Half-Life Human Microsomes:
as §1

`O=S(=O)(Nc1ccc(-c2cc(-c3ccnc(C4(CO)CC4)c3)cs2)c(Cl)c1)NC1CC1` [Compound I-9090]: the “percent parent remaining after 60 min in liver microsomes” value (from here on “percent parent remaining after 60 min”) in data set [1] is listed as “++ (30.1-60 = ++)”. In data set [2], the “percent of compound remaining after 60 min in human liver microsomes” value (shortened to “percent of compound remaining”) was “++ (30.1-60 = ++)”.

On to `CS(=O)(=O)Nc1ccc(-c2cc(-c3ccnc(O[C@@H]4CCC[C@@H]4O)c3)cs2)c(Cl)c1` [Compound I-9111, N-(3-chloro-4-(4-(2-(((1R,2S)-2-hydroxycyclopentyl)oxy)pyridin-4-yl)thiophen-2-yl)phenyl)methanesulfonamide], for which the “percent parent remaining after 60 min” value in data set [1] is “+++ (>60.1 = +++)”. Further, in data set [2], the “percent of compound remaining” value is given as “+++ (>60.1 = +++)”.

Turning to `CS(=O)(=O)Nc1ccc(-c2cc(-c3ccnc(OCCC4(O)COC4)c3)cs2)c(Cl)c1` [Compound I-9112, N-(3-chloro-4-(4-(2-(2-(3-hydroxyoxetan-3-yl)ethoxy)pyridin-4-yl)thiophen-2-yl)phenyl)methanesulfonamide], in data set [1], the “percent parent remaining after 60 min” value is on record as “+++ (>60.1 = +++)”. In data set [2], the “percent of compound remaining” value is listed as “+++ (>60.1 = +++)”.

As to `CS(=O)(=O)Nc1ccc(-c2cc(-c3ccnc(OCC4COCCO4)c3)cs2)c(Cl)c1` (stereo not drawn) [Compound I-9113, N-(4-(4-(2-((1,4-dioxan-2-yl)methoxy)pyridin-4-yl)thiophen-2-yl)-3-chlorophenyl)methanesulfonamide], the “percent parent remaining after 60 min” value in data set [1] was “+++ (>60.1 = +++)”. For the same compound, the “percent of compound remaining” value in data set [2] is “++ (30.1-60 = ++)”.

As for `CC(C)(CO)c1cc(-c2cc(-c3ccc(NC(=O)OC4CC4)cc3Cl)cs2)ccn1` [Compound I-9161, Cyclopropyl(3-chloro-4-(5-(2-(1-hydroxy-2-methylpropan-2-yl)pyridin-4-yl)thiophen-3-yl)phenyl)carbamate], the “percent parent remaining after 60 min” value in data set [1] is reported as “++ (30.1-60 = ++)”. Moreover, in data set [2], the “percent of compound remaining” value is “++ (30.1-60 = ++)”.

Regarding `CC(C)NS(=O)(=O)Nc1ccc(-c2csc(-c3ccnc(C(C)(C)CO)c3)c2)c(Cl)c1` [Compound I-9162, 2-(4-(4-(2-chloro-4-(((isopropylamino)thio)amino)phenyl)thiophen-2-yl)pyridin-2-yl)-2-methylpropan-1-ol, S,S-dioxide], the “percent parent remaining after 60 min” value in data set [1] was “+++ (>60.1 = +++)”. The “percent of compound remaining” value in data set [2] is given as “+ (0-30 = +)”.
